≈ marks a conversion by molar mass, not a printed value.
Columns and labels:
Enterococcus spp. = assay: minimum inhibitory concentration (MIC)
Procedure: (§1)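 Broth microdilution MIC (Sensititre BOPO7F bovine plate, CLSI methods) of 19 antimicrobials against field isolates of P. multocida, M. haemolytica, H. somni (deep nasopharyngeal swabs) and E. coli, Enterococcus spp. (rectal swabs) from weaned dairy heifers. Incubation 16-24 h at 35 C. MIC is the lowest concentration preventing visible growth. Values with <= or > lie at the tested range limits. Trimethoprim-sulfamethoxazole is given as the trimethoprim component of a 1:19 mixture.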

Pasteurella multocida = assay: minimum inhibitory concentration (MIC)
Procedure: as §1

CN(C)[C@@H]1C(O)=C(C(N)=O)C(=O)[C@@]2(O)C(O)=C3C(=O)c4c(O)cccc4[C@@](C)(O)[C@H]3C[C@@H]12 [Tetracycline]
minimum inhibitory concentration [µg/mL]
Settings | Enterococcus spp. | Pasteurella multocida
isolate (source animal id): 2 | 1 (≈ 2.25 µM) | –
isolate (source animal id): 10 | – | > 8
isolate (source animal id): 11 | – | > 8
isolate (source animal id): 12 | – | > 8
isolate (source animal id): 19 | – | > 8
isolate (source animal id): 23 | – | > 8
isolate (source animal id): 26 | – | > 8
isolate (source animal id): 35 | > 8 | –
isolate (source animal id): 42 | > 8 | –
isolate (source animal id): 44 | > 8 | –
isolate (source animal id): 79 | > 8 | –
isolate (source animal id): 88 | 1 (≈ 2.25 µM) | –
isolate (source animal id): 91 | 2 (≈ 4.5 µM) | –
isolate (source animal id): 92 | ≤ 0.5 | –
isolate (source animal id): 98 | – | > 8
isolate (source animal id): 104 | – | > 8
isolate (source animal id): 111 | 1 (≈ 2.25 µM) | –
isolate (source animal id): 115 | – | > 8
isolate (source animal id): 117 | – | > 8
isolate (source animal id): 118 | – | > 8
isolate (source animal id): 121 | – | > 8
isolate (source animal id): 122 | > 8 | –
isolate (source animal id): 123 | > 8 | –
isolate (source animal id): 124 | – | > 8
isolate (source animal id): 125 | – | > 8
isolate (source animal id): 128 | – | > 8
isolate (source animal id): 131 | – | > 8
isolate (source animal id): 133 | > 8 | –
isolate (source animal id): 135 | – | > 8
isolate (source animal id): 136 | – | > 8
isolate (source animal id): 140 | – | > 8
isolate (source animal id): 144 | – | > 8
isolate (source animal id): 146 | – | > 8
isolate (source animal id): 150 | – | > 8
isolate (source animal id): 151 | – | > 8
isolate (source animal id): 153 | – | > 8
isolate (source animal id): 155 | – | > 8
isolate (source animal id): 157 | – | > 8
isolate (source animal id): 158 | > 8 | –
isolate (source animal id): 160 | – | > 8
isolate (source animal id): 164 | – | > 8
isolate (source animal id): 165 | – | > 8
isolate (source animal id): 167 | – | > 8
isolate (source animal id): 168 | > 8 | > 8
isolate (source animal id): 169 | > 8 | 4 (≈ 9 µM)
isolate (source animal id): 170 | – | 8 (≈ 18 µM)
isolate (source animal id): 171 | ≤ 0.5 | 8 (≈ 18 µM)
isolate (source animal id): 172 | – | > 8
isolate (source animal id): 173 | – | > 8
isolate (source animal id): 174 | – | > 8
isolate (source animal id): 175 | > 8 | > 8
isolate (source animal id): 176 | – | > 8
isolate (source animal id): 177 | > 8 | > 8
isolate (source animal id): 178 | – | > 8
isolate (source animal id): 179 | – | 8 (≈ 18 µM)
isolate (source animal id): 181 | > 8 | –
isolate (source animal id): 182 | > 8 | > 8
isolate (source animal id): 183 | > 8 | –
isolate (source animal id): 187 | > 8 | –
isolate (source animal id): 190 | > 8 | –
isolate (source animal id): 192 | – | > 8
isolate (source animal id): 193 | – | > 8
isolate (source animal id): 194 | ≤ 0.5 | –
isolate (source animal id): 195 | > 8 | > 8
isolate (source animal id): 196 | – | > 8
isolate (source animal id): 197 | > 8 | > 8
isolate (source animal id): 198 | – | > 8
isolate (source animal id): 199 | – | 8 (≈ 18 µM)
isolate (source animal id): 200 | – | 8 (≈ 18 µM)
isolate (source animal id): 201 | – | 8 (≈ 18 µM)
isolate (source animal id): 203 | – | > 8
isolate (source animal id): 204 | – | > 8
isolate (source animal id): 205 | – | > 8
isolate (source animal id): 206 | – | > 8
isolate (source animal id): 207 | – | > 8
isolate (source animal id): 208 | – | 8 (≈ 18 µM)
isolate (source animal id): 209 | – | > 8
isolate (source animal id): 210 | – | > 8
isolate (source animal id): 211 | > 8 | –
isolate (source animal id): 213 | – | 8 (≈ 18 µM)
isolate (source animal id): 214 | > 8 | –
isolate (source animal id): 216 | – | 8 (≈ 18 µM)
isolate (source animal id): 222 | > 8 | –
isolate (source animal id): 223 | ≤ 0.5 | > 8
isolate (source animal id): 227 | – | > 8
isolate (source animal id): 228 | > 8 | –
isolate (source animal id): 229 | – | > 8
isolate (source animal id): 230 | > 8 | –
isolate (source animal id): 233 | – | > 8
isolate (source animal id): 234 | – | > 8
isolate (source animal id): 235 | > 8 | –
isolate (source animal id): 236 | ≤ 0.5 | –
isolate (source animal id): 237 | – | > 8
isolate (source animal id): 239 | ≤ 0.5 | –
isolate (source animal id): 241 | > 8 | > 8
isolate (source animal id): 244 | ≤ 0.5 | –
isolate (source animal id): 245 | – | > 8
isolate (source animal id): 246 | > 8 | –
isolate (source animal id): 247 | > 8 | > 8
isolate (source animal id): 250 | > 8 | > 8
isolate (source animal id): 252 | > 8 | –
isolate (source animal id): 254 | – | > 8
isolate (source animal id): 255 | – | > 8
isolate (source animal id): 258 | – | > 8
isolate (source animal id): 261 | – | > 8
isolate (source animal id): 262 | – | > 8
isolate (source animal id): 268 | 1 (≈ 2.25 µM) | –
isolate (source animal id): 269 | – | 8 (≈ 18 µM)
isolate (source animal id): 270 | – | > 8
isolate (source animal id): 274 | – | > 8
isolate (source animal id): 275 | – | > 8
isolate (source animal id): 276 | – | > 8
isolate (source animal id): 277 | – | 8 (≈ 18 µM)
isolate (source animal id): 278 | – | > 8
isolate (source animal id): 279 | – | > 8
isolate (source animal id): 280 | – | > 8
isolate (source animal id): 282 | ≤ 0.5 | –
isolate (source animal id): 284 | – | > 8
isolate (source animal id): 285 | ≤ 0.5 | > 8
isolate (source animal id): 287 | – | > 8
isolate (source animal id): 289 | ≤ 0.5 | –
isolate (source animal id): 290 | ≤ 0.5 | > 8
isolate (source animal id): 294 | – | > 8
isolate (source animal id): 295 | – | > 8
isolate (source animal id): 296 | ≤ 0.5 | > 8
isolate (source animal id): 298 | > 8 | –
isolate (source animal id): 301 | ≤ 0.5 | –
isolate (source animal id): 307 | – | > 8
isolate (source animal id): 310 | > 8 | > 8
isolate (source animal id): 311 | – | > 8
isolate (source animal id): 312 | – | > 8
isolate (source animal id): 313 | – | > 8
isolate (source animal id): 315 | – | > 8
isolate (source animal id): 316 | – | > 8
isolate (source animal id): 320 | > 8 | –
isolate (source animal id): 331 | ≤ 0.5 | –
isolate (source animal id): 333 | ≤ 0.5 | –
isolate (source animal id): 341 | > 8 | –

Reference: the supplement of paper PMC8612539
